Test results: patent US10130605B2, “Compositions for use in treating inflammatory bowel diseases and intestinal colitis” (TaiRx Inc., priority 2017, dated 2018)
Entries after “also recorded” stand apart in the source; their conditions may differ.

Tests used:
Assay type in all cases: in vivo
DSS-induced colitis mice [1] = experiment: DSS-induced acute colitis in mouse: disease activity index (DAI) score; conditions: for DAI: Diacerein 30 and 60 mg/kg; for decrease in fecal blood score than the DSS-induced vehicle group: not statistically significant
Method: (§1) Induction of acute colitis. Acute colitis was induced by giving mice with 2.5% DSS (MP Biomedicals) in a drinking water for 5 consecutive days. The DSS administration was taken place in two separate days; where the mice were divided into two groups based on their body weight before the day of the DSS administration.
(§2) Route of drug administration.
(§3) Treatment doses. Diacerein was administered at 2 dose levels of 30 and 60 mg/kg, once daily for 5 days.
(§4) Animals. Eight-week-old female C57BL/6 mice were obtained from Japan SLC, Inc. (Japan). All animals used in the study were housed and cared in accordance with the Japanese Pharmacological Society Guidelines for Animal Use.
Measurement of disease activity index score. A disease activity index (DAI) was calculated daily by summation of the following parameters: • (i) Weight loss (0=no weight loss; 1=1-5% weight loss; 2=6-10% weight loss; 3=11-15% weight loss; and 4=>15% weight loss); • (ii) Occult blood positivity (0=no bleeding; 1=occult blood test (+); 2=occult blood test (++); 3=occult blood test (+++); and 4=gross bleeding from the anus); and • (iii) Stool consistency (0=normal stools; 2=loose stools; 4=diarrhea).
(§5) The pharmacological effects of aloe-emodin, emodin, and rhein were also respectively tested using the same protocol described above.

DSS-induced colitis mice [2] = experiment: DSS-induced acute colitis in mouse: histological analysis of HE-stained colon sections; conditions: for loss/damage of crypt and epithelium in colon sections vs DSS-induced vehicle group: FIGS. 5B-C, same protocol, dose not given; for loss of crypt and epithelium in HE-stained colon sections vs Vehicle group: FIG. 5A
Method: as §1, §2, §3, §4
Histological analyses. For HE staining, sections were cut from paraffin blocks of colon tissue prefixed in 10% neutral buffered formalin (Wako Pure Chemical Industries, Japan) and stained with Lillie-Mayer's Hematoxylin (Muto Pure Chemicals Co., Ltd., Japan) and eosin solution (Wako Pure Chemical Industries). Representative photos of the changes observed were captured from each group.
as §5

DSS-induced colitis mice [3] = experiment: DSS-induced acute colitis in mouse: body weight, colon length, colon weight, general condition; conditions: for Colon length / Colon weight / Colon-to-BW ratio: colon-to-body weight ratio / BW: body weight on the day of sacrifice: sacrifice day 5; for Colon length / Colon weight / Colon-to-BW ratio: colon-to-body weight ratio: geometric mean ± SEM; for BW: body weight on the day of sacrifice: mean ± SEM, n=8
Method: as §1, §2, §3, §4
The average body weight of mice is about 18-22 grams.
The viability, clinical signs and behavior were monitored daily. Body weight was recorded before the treatment. […] Mice were sacrificed by exsanguinations through direct cardiac puncture under isoflurane anesthesia (Pfizer Inc.). Colon length and weight were measured from the end of the cecum to the anus.
as §5

DSS-induced colitis mice [4] = experiment: DSS-induced acute colitis in mouse: macroscopic scoring of colon tissue (colonic damage score); conditions: for colonic damage score / diarrhea score / thickness score / ulceration score: sacrifice day 5
Method: as §1, §2, §3, §4
Macroscopic scoring of colon tissue. Colonic damage was scored using the published criteria of measurement (Wallace et al, Gastroenterology, 1992, 102, 18-27). […]

[5] = summary b147-b150, same protocol, dose not given
[6] = summary b148-b149, same protocol, dose not given
[7] = Diacerein 30 mg/kg PO QD day 0-4
[8] = Diacerein 60 mg/kg PO QD day 0-4
[9] = summary b149-b150, same protocol, dose not given
[10] = Mesalazine 100 mg/kg, Day 2 and 3
[11] = Mesalazine, dose not given, Day 2 and 3
[12] = both Mesalazine groups (20 and 100 mg/kg), Day 5
[13] = Mesalazine 20 mg/kg PO QD day 0-4
[14] = Mesalazine 100 mg/kg PO QD day 0-4

Compound: O=C1c2cccc(O)c2C(=O)c2c(O)cc(CO)cc21 [Aloe-emodin, 1,8-Dihydroxy-3-(hydroxymethyl)anthraquinone]
- DAI results (in words) (DSS-induced colitis mice [1]; same protocol, dose not given): effective
- body weight score (in words) (DSS-induced colitis mice [1]; [5]): significant effects on reducing the body weight score
- fecal blood score (in words) (DSS-induced colitis mice [1]; [6]): significant effects on reducing the fecal blood score
- loss/damage of crypt and epithelium in colon sections vs DSS-induced vehicle group (DSS-induced colitis mice [2]): less loss of crypt and epithelium; also recorded: clearly reduced
- colon-to-body weight ratio vs DSS-induced vehicle group (in words) (DSS-induced colitis mice [3]; same protocol, dose not given): significant improvement in the colon-to-body weight ratio
- prevention of the body weight loss by DSS-induction (in words) (DSS-induced colitis mice [3]; same protocol, dose not given): able to prevent the body weight loss

Compound: CC(=O)Oc1cccc2c1C(=O)c1c(OC(C)=O)cc(C(=O)O)cc1C2=O [Diacerein, 1,8-Diacetoxy-3-carboxyanthraquinone]
- fecal blood score vs Vehicle group (in words) (DSS-induced colitis mice [1]; Diacerein 30 mg/kg, during the treatment): decreased slight fecal blood
- fecal blood score vs Vehicle group (in words) (DSS-induced colitis mice [1]; Diacerein 60 mg/kg, during the treatment): more significant reduction
- DAI (DSS-induced colitis mice [1]; Day 4 (vehicle 6.4)): ~5.1
- DAI (DSS-induced colitis mice [1]; Day 5 (vehicle 7.1)): ~6.3
- body weight score (DSS-induced colitis mice [1]; Diacerein treatment groups (30 and 60 mg/kg), Day 4, p<0.05 (vehicle 1.0)): 0.1-0.3
- body weight score (DSS-induced colitis mice [1]; Diacerein treatment groups (30 and 60 mg/kg), Day 5 (vehicle 1.1)): 0.6-0.9
- decrease in fecal blood score than the DSS-induced vehicle group (DSS-induced colitis mice [1]; both Diacerein groups (30 and 60 mg/kg), Day 5): 11.4%
- loss of crypt and epithelium in HE-stained colon sections vs Vehicle group (DSS-induced colitis mice [2]; Diacerein treatment groups (30 and 60 mg/kg)): less loss of crypt and epithelium
- Colon length (DSS-induced colitis mice [3]; [7]): 5.6 ± 0.2 cm
- Colon weight (DSS-induced colitis mice [3]; [7]): 211 ± 10 mg
- Colon-to-BW ratio: colon-to-body weight ratio (DSS-induced colitis mice [3]; [7]): 1.2 ± 0.1%
- BW: body weight on the day of sacrifice (DSS-induced colitis mice [3]; [7]): 17.8 ± 0.1 g
- Colon length (DSS-induced colitis mice [3]; [8]): 5.4 ± 0.3 cm
- Colon weight (DSS-induced colitis mice [3]; [8]): 211 ± 0.1 mg
- Colon-to-BW ratio: colon-to-body weight ratio (DSS-induced colitis mice [3]; [8]): 1.2 ± 0.1%
- BW: body weight on the day of sacrifice (DSS-induced colitis mice [3]; [8]): 17.8 ± 0.3 g
- body weight changes (in words) (DSS-induced colitis mice [3]; Diacerein groups (30 and 60 mg/kg PO QD), 5-day treatment): maintain the body weights close to the Sham animals
- increase in body weight on the day of sacrifice than the DSS-induced vehicle group (DSS-induced colitis mice [3]; both Diacerein groups (30 and 60 mg/kg PO QD), significant): 6.6%
- colonic damage score (DSS-induced colitis mice [4]; [7]): 4.1 ± 0.1
- diarrhea score (DSS-induced colitis mice [4]; [7]): 1.0 ± 0.0
- thickness score (DSS-induced colitis mice [4]; [7]): 1.0 ± 0.0
- ulceration score (DSS-induced colitis mice [4]; [7]): 2.1 ± 0.1
- decrease in colonic damage score than the DSS-induced vehicle group (DSS-induced colitis mice [4]; Diacerein 30 mg/kg, not statistically significant): 6.8%
- diarrhea score vs DSS-induced vehicle group (in words) (DSS-induced colitis mice [4]; Diacerein 60 mg/kg): lower effect on diarrhea score than the DSS-induced vehicle group, but the observed effect was not statistically significant
- colonic damage score (DSS-induced colitis mice [4]; [8]): 3.8 ± 0.1
- thickness score (DSS-induced colitis mice [4]; [8]): 0.9 ± 0.0
- ulceration score (DSS-induced colitis mice [4]; [8]): 2.0 ± 0.0
- decrease in colonic damage score than the DSS-induced vehicle group (DSS-induced colitis mice [4]; Diacerein 60 mg/kg, significant, p<0.05): 13.6%

Compound: Cc1cc(O)c2c(c1)C(=O)c1cc(O)cc(O)c1C2=O [Emodin, 1,3,8-Trihydroxy-6-methyl-9,10-anthracenedione]
- DAI results (in words) (DSS-induced colitis mice [1]; same protocol, dose not given): effective
- body weight score (in words) (DSS-induced colitis mice [1]; [5]): significant effects on reducing
- fecal blood score (in words) (DSS-induced colitis mice [1]; [6]): significant effects on reducing
- diarrheal stool score (in words) (DSS-induced colitis mice [1]; [9]): significant effects on reducing
- colon weight vs DSS-induced vehicle group (in words) (DSS-induced colitis mice [3]; same protocol, dose not given): significant improvement in colon weight
- colon-to-body weight ratio vs DSS-induced vehicle group (in words) (DSS-induced colitis mice [3]; same protocol, dose not given): significant reduction in the colon-to-body weight ratio
- prevention of the body weight loss by DSS-induction (in words) (DSS-induced colitis mice [3]; same protocol, dose not given): able to prevent the body weight loss

Compound: Nc1ccc(O)c(C(=O)O)c1 [Mesalazine, 5-Amino-2-hydroxybenzoic acid]
- fecal blood score vs Vehicle group (in words) (DSS-induced colitis mice [1]; Mesalazine 20 mg/kg, only at Day 1): significant reduction
- effect on DAI (in words) (DSS-induced colitis mice [1]; Mesalazine 20 mg/kg, throughout 5-day treatment): no effect
- fecal blood score vs Vehicle group (in words) (DSS-induced colitis mice [1]; Mesalazine 100 mg/kg, Day 1 to 3): significant reduction
- Diarrheal stool score vs Vehicle group (in words) (DSS-induced colitis mice [1]; [10]): significant reduction
- effect on DAI (in words) (DSS-induced colitis mice [1]; [10]): significant reduction
- effect on DAI (in words) (DSS-induced colitis mice [1]; Mesalazine 100 mg/kg, Day 4 or Day 5): no clear reduction in DAI
- DAI results (in words) (DSS-induced colitis mice [1]; Mesalazine (60 mg/kg)): effective
- body weight score (in words) (DSS-induced colitis mice [1]; Mesalazine (60 mg/kg)): significant effects on reducing the body weight score
- diarrheal stool score (in words) (DSS-induced colitis mice [1]; [11]): significantly decreased
- fecal blood score (in words) (DSS-induced colitis mice [1]; [11]): significantly decreased
- body weight score (DSS-induced colitis mice [1]; both Mesalazine groups (20 and 100 mg/kg), Day 4): 1.0-1.3
- body weight score (DSS-induced colitis mice [1]; [12]): 1.6-1.9
- decrease in fecal blood score than the DSS-induced vehicle group (DSS-induced colitis mice [1]; [12]): 11.4%
- loss of crypt and epithelium in HE-stained colon sections vs Vehicle group (DSS-induced colitis mice [2]; Mesalazine treatment alone (20 and 100 mg/kg)): No significant effect
- loss/damage of crypt and epithelium in colon sections vs DSS-induced vehicle group (DSS-induced colitis mice [2]): less loss of crypt and epithelium
- crypt and epithelium damages induced by DSS, microscopic examination of colon sections (DSS-induced colitis mice [2]; Mesalazine treatments (20 and 60 mg/kg)): clearly reduced
- colon weight vs DSS-induced vehicle group (in words) (DSS-induced colitis mice [3]; Mesalazine 20 mg/kg): significant improvement in colon weight
- Colon length (DSS-induced colitis mice [3]; [13]): 5.0 ± 0.2 cm
- Colon weight (DSS-induced colitis mice [3]; [13]): 202 ± 6 mg
- Colon length (DSS-induced colitis mice [3]; [14]): 5.3 ± 0.3 cm
- Colon weight (DSS-induced colitis mice [3]; [14]): 202 ± 8 mg
- colon weight vs DSS-induced vehicle group (in words) (DSS-induced colitis mice [3]; Mesalazine (60 mg/kg)): lower effect on colon weight than the DSS-induced vehicle group
- prevention of the body weight loss by DSS-induction (in words) (DSS-induced colitis mice [3]; Mesalazine (60 mg/kg)): able to prevent the body weight loss
- improvement in colon length than the DSS-induced vehicle group (DSS-induced colitis mice [3]; both Mesalazine groups (20 and 100 mg/kg PO QD), not statistically significant): 3-9%
- diarrhea score vs DSS-induced vehicle group (in words) (DSS-induced colitis mice [4]; Mesalazine 20 mg/kg): significant decrease in diarrhea score
- colonic damage score (DSS-induced colitis mice [4]; [13]): 3.5 ± 0.2
- thickness score (DSS-induced colitis mice [4]; [13]): 1.0 ± 0.0
- ulceration score (DSS-induced colitis mice [4]; [13]): 2.0 ± 0.0
- decrease in colonic damage score than the DSS-induced vehicle group (DSS-induced colitis mice [4]; Mesalazine 20 mg/kg, significant, p<0.05): 20.5%
- colonic damage score (DSS-induced colitis mice [4]; [14]): 4.0 ± 0.0
- diarrhea score (DSS-induced colitis mice [4]; [14]): 1.0 ± 0.0
- thickness score (DSS-induced colitis mice [4]; [14]): 1.0 ± 0.0
- ulceration score (DSS-induced colitis mice [4]; [14]): 2.0 ± 0.0
- decrease in colonic damage score than the DSS-induced vehicle group (DSS-induced colitis mice [4]; Mesalazine 100 mg/kg, not statistically significant): 9.1%

Compound: O=C(O)c1cc(O)c2c(c1)C(=O)c1cccc(O)c1C2=O [Rhein, 4,5-Dihydroxyanthraquinone-2-carboxylic acid]
- DAI results (in words) (DSS-induced colitis mice [1]; same protocol, dose not given): effective
- body weight score (in words) (DSS-induced colitis mice [1]; [5]): significant effects on reducing the body weight score
- diarrheal stool score (in words) (DSS-induced colitis mice [1]; [9]): significant effects on reducing the diarrheal stool score
- loss/damage of crypt and epithelium in colon sections vs DSS-induced vehicle group (DSS-induced colitis mice [2]): less loss of crypt and epithelium; also recorded: clearly reduced
- colon weight vs DSS-induced vehicle group (in words) (DSS-induced colitis mice [3]; same protocol, dose not given): significant improvement in colon weight
- colon-to-body weight ratio vs DSS-induced vehicle group (in words) (DSS-induced colitis mice [3]; same protocol, dose not given): significant reduction in the colon-to-body weight ratio
- prevention of the body weight loss by DSS-induction (in words) (DSS-induced colitis mice [3]; same protocol, dose not given): able to prevent the body weight loss
